Experimental data as given in patent US12686690B2, “Macrocyclic urea orexin receptor agonists” (Merck Sharp & Dohme LLC, priority 2020, dated 2026).

Target: T1, hOX2R (Homo sapiens, UniProt O43614)
T1 construct: expressed in transfected cells; host or cells: CHO cells (G418 selection)
T1 sequence (O43614 1-444): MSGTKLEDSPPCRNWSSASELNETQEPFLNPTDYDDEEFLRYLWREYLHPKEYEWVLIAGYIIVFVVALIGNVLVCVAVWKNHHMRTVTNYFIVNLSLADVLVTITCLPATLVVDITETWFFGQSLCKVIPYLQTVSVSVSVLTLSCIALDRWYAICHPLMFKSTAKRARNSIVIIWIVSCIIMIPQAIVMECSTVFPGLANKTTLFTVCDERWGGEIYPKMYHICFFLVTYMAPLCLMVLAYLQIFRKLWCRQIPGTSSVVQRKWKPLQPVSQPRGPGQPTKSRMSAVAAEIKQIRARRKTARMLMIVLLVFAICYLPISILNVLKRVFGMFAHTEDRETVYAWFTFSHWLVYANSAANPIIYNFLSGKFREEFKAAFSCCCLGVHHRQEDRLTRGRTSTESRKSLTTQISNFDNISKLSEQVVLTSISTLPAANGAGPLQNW
Assay: hOX2R IPone assay (orexin receptor agonism)
Format: cell-based
Details: IPone readout; for hOX2R_Ipone max %act: maximal activation; for EC50: orexin receptor agonist, read-out: hOX2R_IPone EC50

Row | hOX2R_Ipone max %act | EC50 | Compound
1 | 101.9% | 1 nM | CCN1C(=O)NC(CC2CCCC2)CCCCCOc2nc(cn3ccnc23)-c2cc(ncc2OC)[C@H]1C (single isomer, unassigned) [Example 65B]
2 | 101.4% | 0.77 nM | CCN1C(=O)N[C@@H](CCC(C)(F)F)CCCCCOc2nc(c(C)n3ccnc23)-c2cc(ccn2)[C@H]1C [Example 160, (3R,7R,E)-7-(3,3-difluorobutyl)-4-ethyl-15,3-dimethyl-13-oxa-4,6-diaza-1(6,8)-imidazo[1,2-a]pyrazina-2(2,4)-pyridinacyclotridecaphan-5-one]
3 | 109.6% | 1.11 nM | CCN1C(=O)N[C@@H](CCC(F)(F)F)CCCCCOc2cc(nn3ccnc23)-c2cc(ncc2OC)[C@H]1C [Example 149, (3R,7R,E)-4-ethyl-25-methoxy-3-methyl-7-(3,3,3-trifluoropropyl)-13-oxa-4,6-diaza-1(6,8)-imidazo[1,2-b]pyridazina-2(4,2)-pyridinacyclotridecaphan-5-one]
4 | 100.8% | 167 nM | CCN1C(=O)N[C@@H](CCC(F)(F)F)CCCCCOc2nc(cn3ccnc23)-c2nc(ncc2C)[C@@H]1C [Example 93A, (12S,16R)-13-ethyl-8,12-dimethyl-16-(3,3,3-trifluoro-propyl)-12,13,16,17, 18,19,20,21-octa-hydro-6,23:11,7-di(azeno)imidazo[2,1-c][1,4,10,13,15]oxatet-raazacyclohenicosin-14(15H)-one]
5 | 99.3% | 3.5 nM | CCN1C(=O)N[C@@H](CCC(F)(F)F)CCCCCOc2nc(c(C)n3ccnc23)-c2cc(cnc2OC)[C@H]1C [Example 86, (12R,16R)-13-ethyl-8-methoxy-5,12-dimethyl-16-(3,3,3-trifluoropropyl)-12,13,16,17,18,19,20, 21-octahydro-6,23-(azeno)-11,7-(metheno)imidazo[2,1-c][1,4,9,13,15] oxatetraazacycloheni-cosin-14(15H)-one]
6 | 100.1% | 8.48 nM | CCN1C(=O)N[C@@H](CCC(F)(F)F)CCCCCc2cc(cn3ccnc23)-c2nc(ccc2OC)[C@H]1C [Example 138, (3R,7R,Z)-4-ethyl-23-methoxy-3-methyl-7-(3,3,3-trifluoropropyl)-4,6-diaza-1(6,8)-imidazo[1,2-a]pyridina-2(2,6)-pyridinacyclododecaphan-5-one]
7 | 100% | 11.4 nM | CCN1C(=O)NC(CC23CC(C2)C3)CCCCCOc2nc(nn3ccnc23)-c2cc(ncc2OC)[C@H]1C (stereo partly drawn) [Example 203, (3R,E)-7-(bicyclo[1.1.1]pentan-1-ylmethyl)-4-ethyl-25-methoxy-3-methyl-13-oxa-4,6-diaza-1(2,4)-imidazo[2,1-f][1,2,4]triazina-2(4,2)-pyridinacyclotridecaphan-5-one]
8 | 101.2% | 0.6 nM | CCN1C(=O)NC(CC2CC2)CCCCCOc2nc(cn3ccnc23)-c2cc(ncc2OC)[C@H]1C (single isomer, unassigned) [Example 55B]
9 | 97.88% | 1.08 nM | CCN1C(=O)N[C@@H](CCC(F)(F)F)CCCCCOc2nc(cn3ccnc23)-c2nc(cnc2OC)[C@H]1C [Example 139, (3R,7R,E)-4-ethyl-23-methoxy-3-methyl-7-(3,3,3-trifluoropropyl)-13-oxa-4,6-diaza-1(6,8)-imidazo[1,2-a]pyrazina-2(2,6)-pyrazinacyclotridecaphan-5-one]
10 | 99.5% | 5.6 nM | CCN1C(=O)NC(CCC(C)F)CCCCCOc2nc(cn3ccnc23)-c2cc(ncc2OC)[C@H]1C (single isomer, unassigned) [Example 72A]
11 | 99.48% | 2.79 nM | CCN1C(=O)NC2CN(CCCOc3nc(cn4ccnc34)-c3cc(ncc3OC)[C@H]1C)CC2C(F)(F)F (single isomer, unassigned) [Example 212]
12 | 100.7% | 119 nM | CCN1C(=O)NC(C2CC2)CCCCCOc2nc(cn3ccnc23)-c2cc(ncc2OC)[C@H]1C (single isomer, unassigned) [Example 57A]
13 | 100.8% | 48.9 nM | CCN1C(=O)NC(COC)CCCCCOc2nc(cn3ccnc23)-c2cc(ncc2OC)[C@H]1C (single isomer, unassigned) [Example 58A]
14 | 99.4% | 4.1 nM | CCN1C(=O)NC(CCC(F)(F)F)CC(C)CCOc2nc(cn3ccnc23)-c2cccc(c2)[C@H]1C (single isomer, unassigned) [Example 48A]
15 | 67.1% | 10100 nM | CCN1C(=O)N[C@@H](CCC(F)(F)F)CCCCCOc2nc(cn3ccnc23)-c2cc(c(C)cn2)C1C (single isomer, unassigned) [Example 92A]
16 | 100% | 61.6 nM | CCN1C(=O)N[C@@H](CCC(F)(F)F)CCCCCOc2nc(cn3ccnc23)-c2nc(co2)C1C (single isomer, unassigned) [Example 105B]
17 | 111.8% | 3.36 nM | CCN1C(=O)N[C@@H](CCC(C)(F)F)CCOCCOc2nc(cc3ncnn23)-c2cc(ncc2OC)[C@H]1C [Example 169, (3R,E)-7-(3,3-difluorobutyl)-4-ethyl-25-methoxy-3-methyl-10,13-dioxa-4,6-diaza-1(7,5)-[1,2,4]triazolo[1,5-c]pyrimidina-2(4,2)-pyridinacyclotridecaphan-5-one]
18 | 96.6% | 528 nM | CCN1C(=O)N[C@@H](CCC(F)(F)F)CCCCCOc2nc(cn3cc(C)nc23)-c2cc(nc3ccoc23)C1C (single isomer, unassigned) [Example 75A]
19 | 89.95% | 271 nM | CCN1C(=O)N[C@@H](CCC(F)(F)F)CCCCCOc2nc(cn3ccnc23)-c2ccnc(c2)C1(C)C [Example 143, (R,E)-4-ethyl-3,3-dimethyl-7-(3,3,3-trifluoropropyl)-13-oxa-4,6-diaza-1(6,8)-imidazo[1,2-a]pyrazina-2(4,2)-pyridinacyclotridecaphan-5-one]
20 | 106.5% | 4.17 nM | CCN1C(=O)N[C@@H](c2nccnc2C)CCCCCOc2nc(cn3ccnc23)-c2cc(ncc2OC)[C@H]1C [Example 152, (3R,7R,E)-4-ethyl-25-methoxy-3-methyl-7-(3-methylpyrazin-2-yl)-13-oxa-4,6-diaza-1(6,8)-imidazo[1,2-a]pyrazina-2(4,2)-pyridinacyclotridecaphan-5-one]
21 | 100.4% | 52.1 nM | CCN1C(=O)NC(CCCOC)CCCCCOc2nc(cn3ccnc23)-c2cc(ncc2OC)[C@H]1C (single isomer, unassigned) [Example 60A]
22 | 96.6% | 250 nM | CCN1C(=O)NCC(C(F)(F)F)N(C)CCOc2nc(cn3ccnc23)-c2cccc(c2)[C@H]1C (single isomer, unassigned) [Example 25A]
23 | 105.4% | 1.3 nM | CCN1C(=O)NC(CCC(F)F)CCCCCOc2nc(cn3ccnc23)-c2cc(ncc2C2CC2)[C@H]1C (stereo partly drawn) [Example 197, (3R,E)-25-cyclopropyl-7-(3,3-difluoropropyl)-4-ethyl-3-methyl-13-oxa-4,6-diaza-1(6,8)-imidazo[1,2-a]pyrazina-2(4,2)-pyridina-cyclotridecaphan-5-one]
24 | 102.4% | 1.5 nM | CCN1C(=O)N[C@@H](CCC(F)(F)F)CCCCCCOc2nc(cn3ccnc23)-c2cc(ncc2OC)[C@H]1C [Example 109, (3R,7R,E)-4-ethyl-25-methoxy-3-methyl-7-(3,3,3-trifluoropropyl)-14-oxa-4,6-diaza-1(6,8)-imidazo[1,2-a]pyrazina-2(4,2)-pyridinacyclotetra-decaphan-5-one]
25 | 102% | 3.87 nM | C[C@@H]1c2cc(ccn2)-c2cn3ccnc3c(n2)OCCCCC[C@H](CCC(F)(F)F)NC(=O)N1C [Example 158, (3R,7R,E)-3,4-dimethyl-7-(3,3,3-trifluoropropyl)-13-oxa-4,6-diaza-1(6,8)-imidazo[1,2-a]pyrazina-2(4,2)-pyridinacyclotridecaphan-5-one]
26 | 99.5% | 42.9 nM | CCN1C(=O)N[C@@H](CCC(F)(F)F)CCCCOc2nc(cn3ccnc23)-c2ccnc(c2)[C@@H]1C [Example 29A, (12S,16R)-13-ethyl-12-methyl-16-(3,3,3-tri-fluoropropyl)-12,13,15,16,17, 18,19,20-octahydro-14H-6,22-(azeno)-11,7-(metheno) imidazo[2,1-c][1,4,10,13,15] oxatetraazacyclo-icosin-14-one]
27 | 99.8% | 1.6 nM | CCC(CC)CC1CCCCCOc2nc(cn3ccnc23)-c2cc(ncc2OC)[C@@H](C)N(CC)C(=O)N1 (single isomer, unassigned) [Example 64B]
28 | 102.1% | 4.75 nM | CCN1C(=O)NC(C(O)CC(F)(F)F)CCCCCOc2nc(cn3ncnc23)-c2cc(ncc2OC)C1C (single isomer, unassigned) [Example 133]

Row | Compound | hOX2R_Ipone max %act | EC50
29 | CCN1C(=O)NCCN(C(C)C)CCOc2nc(cn3ccnc23)-c2cccc(c2)[C@H]1C [Example 3, (12R)-13-ethyl-12-methyl-18-(propan-2-yl)-12,13,15,16,17,18,19,20-octahydro-14H-6,22-(azeno)-11,7-(metheno)imidazo[1,2-r][1,4,7,9,18]oxatetraaza-cycloicosin-14-one] | 88.8% | 2500 nM
